From ChEMBL document CHEMBL4507258 (2021)

Tests used:
[1] = target: Mitogen-activated protein kinase kinase kinase 6 (Homo sapiens) (UniProt O95382); conditions: Compound concentration 1000.0 nM
[2] = target: BMP-2-inducible protein kinase (Homo sapiens) (UniProt Q9NSY1); conditions: Compound concentration 1000.0 nM
[3] = target: Cyclin-dependent kinase-like 2 (Homo sapiens) (UniProt Q92772); conditions: Compound concentration 1000.0 nM
[4] = target: Casein kinase I isoform gamma-2 (Homo sapiens) (UniProt P78368); conditions: Compound concentration 1000.0 nM
[5] = target: Serine/threonine-protein kinase DCLK1 (Homo sapiens) (UniProt O15075); conditions: Compound concentration 1000.0 nM
[6] = target: Serine/threonine-protein kinase DCLK3 (Homo sapiens) (UniProt Q9C098); conditions: Compound concentration 1000.0 nM
[7] = target: Mitogen-activated protein kinase kinase kinase 12 (Homo sapiens) (UniProt Q12852); conditions: Compound concentration 1000.0 nM
Mitogen-activated protein kinase kinase kinase 12 (Homo sapiens), sequence (Q12852 whole entry): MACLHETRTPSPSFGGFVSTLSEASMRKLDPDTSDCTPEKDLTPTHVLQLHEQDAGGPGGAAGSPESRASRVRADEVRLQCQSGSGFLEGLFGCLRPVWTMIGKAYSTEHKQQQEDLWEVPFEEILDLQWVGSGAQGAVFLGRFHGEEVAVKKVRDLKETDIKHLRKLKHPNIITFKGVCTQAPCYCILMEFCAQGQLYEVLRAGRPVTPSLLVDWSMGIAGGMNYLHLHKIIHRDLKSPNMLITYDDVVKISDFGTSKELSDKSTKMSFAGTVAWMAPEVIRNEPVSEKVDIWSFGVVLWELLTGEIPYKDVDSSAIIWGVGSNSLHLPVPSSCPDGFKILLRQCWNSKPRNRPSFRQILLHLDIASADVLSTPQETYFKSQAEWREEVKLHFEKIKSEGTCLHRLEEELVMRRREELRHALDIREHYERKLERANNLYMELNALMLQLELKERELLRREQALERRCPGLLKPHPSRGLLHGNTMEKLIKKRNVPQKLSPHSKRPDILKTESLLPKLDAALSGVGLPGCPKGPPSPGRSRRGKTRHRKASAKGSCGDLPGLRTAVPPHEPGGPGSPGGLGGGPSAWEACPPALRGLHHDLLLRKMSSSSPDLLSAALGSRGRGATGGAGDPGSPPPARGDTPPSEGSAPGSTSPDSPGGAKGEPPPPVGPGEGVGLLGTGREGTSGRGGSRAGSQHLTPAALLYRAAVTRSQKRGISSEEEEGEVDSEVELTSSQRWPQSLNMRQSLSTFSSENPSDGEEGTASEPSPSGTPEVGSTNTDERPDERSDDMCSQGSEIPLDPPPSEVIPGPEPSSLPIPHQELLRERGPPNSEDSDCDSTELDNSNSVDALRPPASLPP

[8] = target: Ephrin type-A receptor 4 (Homo sapiens) (UniProt P54764); conditions: Compound concentration 1000.0 nM
[9] = target: Mitogen-activated protein kinase 4 (Homo sapiens) (UniProt P31152); conditions: Compound concentration 1000.0 nM
[10] = target: Mitogen-activated protein kinase 15 (Homo sapiens) (UniProt Q8TD08); conditions: Compound concentration 1000.0 nM
[11] = target: Serine/threonine-protein kinase/endoribonuclease IRE1 (Homo sapiens) (UniProt O75460); conditions: Compound concentration 1000.0 nM
Serine/threonine-protein kinase/endoribonuclease IRE1 (Homo sapiens), sequence (O75460 19-977 limits assumed): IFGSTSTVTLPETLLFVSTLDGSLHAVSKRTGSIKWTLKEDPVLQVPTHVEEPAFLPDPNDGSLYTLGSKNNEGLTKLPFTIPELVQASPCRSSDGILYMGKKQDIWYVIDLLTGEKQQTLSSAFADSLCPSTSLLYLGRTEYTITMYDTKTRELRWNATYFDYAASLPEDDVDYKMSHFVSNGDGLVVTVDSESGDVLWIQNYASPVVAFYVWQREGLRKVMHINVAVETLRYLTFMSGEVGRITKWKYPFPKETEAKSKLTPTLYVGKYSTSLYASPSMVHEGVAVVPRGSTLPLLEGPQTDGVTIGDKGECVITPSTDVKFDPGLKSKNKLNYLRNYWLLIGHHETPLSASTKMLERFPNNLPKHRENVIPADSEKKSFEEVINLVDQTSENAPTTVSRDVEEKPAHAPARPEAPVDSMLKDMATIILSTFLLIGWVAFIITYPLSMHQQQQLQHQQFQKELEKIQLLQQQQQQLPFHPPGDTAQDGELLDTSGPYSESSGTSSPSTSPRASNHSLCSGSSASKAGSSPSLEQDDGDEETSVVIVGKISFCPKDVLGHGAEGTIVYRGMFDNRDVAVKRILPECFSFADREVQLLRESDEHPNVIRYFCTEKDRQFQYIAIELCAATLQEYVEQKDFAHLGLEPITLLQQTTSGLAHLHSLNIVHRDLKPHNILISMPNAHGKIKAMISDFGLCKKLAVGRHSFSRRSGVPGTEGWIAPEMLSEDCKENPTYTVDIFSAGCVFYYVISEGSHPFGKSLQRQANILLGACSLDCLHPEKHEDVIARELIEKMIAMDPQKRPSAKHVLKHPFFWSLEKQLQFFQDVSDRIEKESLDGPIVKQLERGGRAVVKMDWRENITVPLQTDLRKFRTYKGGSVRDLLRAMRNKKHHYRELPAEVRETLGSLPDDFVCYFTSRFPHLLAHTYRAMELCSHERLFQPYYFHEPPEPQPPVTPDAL

[12] = target: Tyrosine-protein kinase Fes/Fps (Homo sapiens) (UniProt P07332); conditions: Compound concentration 1000.0 nM
[13] = tested on: Receptor-type tyrosine-protein kinase FLT3 (Homo sapiens), P36888 [D835Y]; conditions: Compound concentration 1000.0 nM
[14] = tested on: Receptor-type tyrosine-protein kinase FLT3 (Homo sapiens), P36888 [N841I]; conditions: Compound concentration 1000.0 nM
[15] = target: Homeodomain-interacting protein kinase 2 (Homo sapiens) (UniProt Q9H2X6); conditions: Compound concentration 1000.0 nM
Homeodomain-interacting protein kinase 2 (Homo sapiens), sequence (Q9H2X6 whole entry, looked up): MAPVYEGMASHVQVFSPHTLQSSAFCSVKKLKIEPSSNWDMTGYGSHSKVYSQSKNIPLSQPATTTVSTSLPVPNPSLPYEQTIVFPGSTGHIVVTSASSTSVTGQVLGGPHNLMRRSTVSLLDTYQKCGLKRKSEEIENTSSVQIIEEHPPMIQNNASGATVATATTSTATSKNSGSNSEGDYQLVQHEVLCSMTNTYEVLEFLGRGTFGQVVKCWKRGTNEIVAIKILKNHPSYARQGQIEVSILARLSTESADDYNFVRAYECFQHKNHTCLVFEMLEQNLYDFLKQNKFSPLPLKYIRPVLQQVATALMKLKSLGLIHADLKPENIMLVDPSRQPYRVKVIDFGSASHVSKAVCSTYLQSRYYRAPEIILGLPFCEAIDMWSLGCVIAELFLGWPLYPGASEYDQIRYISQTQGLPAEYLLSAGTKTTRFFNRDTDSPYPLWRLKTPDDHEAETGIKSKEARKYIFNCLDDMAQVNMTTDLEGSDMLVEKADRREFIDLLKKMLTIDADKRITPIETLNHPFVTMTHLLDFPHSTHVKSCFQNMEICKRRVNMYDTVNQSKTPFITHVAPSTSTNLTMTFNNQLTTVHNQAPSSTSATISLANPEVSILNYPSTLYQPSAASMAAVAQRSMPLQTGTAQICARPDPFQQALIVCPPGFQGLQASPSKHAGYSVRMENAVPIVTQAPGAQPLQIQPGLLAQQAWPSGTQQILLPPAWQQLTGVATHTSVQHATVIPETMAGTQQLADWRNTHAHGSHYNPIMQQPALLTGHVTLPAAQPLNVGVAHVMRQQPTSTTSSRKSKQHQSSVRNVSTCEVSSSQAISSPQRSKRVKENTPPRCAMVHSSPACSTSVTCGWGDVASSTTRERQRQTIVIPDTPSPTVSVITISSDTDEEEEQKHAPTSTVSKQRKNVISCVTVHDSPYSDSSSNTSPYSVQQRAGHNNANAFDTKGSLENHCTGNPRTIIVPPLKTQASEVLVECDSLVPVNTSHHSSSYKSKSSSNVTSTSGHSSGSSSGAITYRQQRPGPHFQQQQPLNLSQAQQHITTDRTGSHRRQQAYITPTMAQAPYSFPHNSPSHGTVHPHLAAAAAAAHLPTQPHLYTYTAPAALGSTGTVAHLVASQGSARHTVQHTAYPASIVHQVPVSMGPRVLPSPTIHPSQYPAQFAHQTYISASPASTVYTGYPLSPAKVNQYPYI

[16] = target: Hormonally up-regulated neu tumor-associated kinase (Homo sapiens) (UniProt P57058); conditions: Compound concentration 1000.0 nM
Hormonally up-regulated neu tumor-associated kinase (Homo sapiens), sequence (P57058 whole entry): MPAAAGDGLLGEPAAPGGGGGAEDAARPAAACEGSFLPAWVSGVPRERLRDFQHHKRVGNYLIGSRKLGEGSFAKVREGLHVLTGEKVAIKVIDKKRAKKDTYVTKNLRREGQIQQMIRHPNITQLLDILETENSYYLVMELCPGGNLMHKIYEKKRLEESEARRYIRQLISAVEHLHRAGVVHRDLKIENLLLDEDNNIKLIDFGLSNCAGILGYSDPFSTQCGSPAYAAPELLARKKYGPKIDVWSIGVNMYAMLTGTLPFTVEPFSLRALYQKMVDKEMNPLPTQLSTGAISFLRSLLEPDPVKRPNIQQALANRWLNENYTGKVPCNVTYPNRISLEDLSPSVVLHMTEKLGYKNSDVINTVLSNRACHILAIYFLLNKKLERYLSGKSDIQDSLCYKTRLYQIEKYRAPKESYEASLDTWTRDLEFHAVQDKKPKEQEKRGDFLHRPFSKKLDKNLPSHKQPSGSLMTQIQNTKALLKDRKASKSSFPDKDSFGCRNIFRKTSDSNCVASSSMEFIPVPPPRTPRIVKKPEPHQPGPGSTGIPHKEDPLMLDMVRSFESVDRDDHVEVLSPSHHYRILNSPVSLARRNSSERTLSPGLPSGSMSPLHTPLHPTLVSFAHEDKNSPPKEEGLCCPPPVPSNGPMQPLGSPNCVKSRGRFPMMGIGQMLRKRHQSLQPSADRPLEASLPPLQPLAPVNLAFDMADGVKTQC

[17] = target: Serine/threonine-protein kinase ICK (Homo sapiens) (UniProt Q9UPZ9); conditions: Compound concentration 1000.0 nM
[18] = target: Inhibitor of nuclear factor kappa-B kinase subunit beta (Homo sapiens) (UniProt O14920); conditions: Compound concentration 1000.0 nM
[19] = target: Tyrosine-protein kinase JAK1 (Homo sapiens) (UniProt P23458); conditions: Compound concentration 1000.0 nM
[20] = target: MAP/microtubule affinity-regulating kinase 4 (Homo sapiens) (UniProt Q96L34); conditions: Compound concentration 1000.0 nM
[21] = target: Myosin light chain kinase (Homo sapiens) (UniProt Q32MK0); conditions: Compound concentration 1000.0 nM
[22] = target: Serine/threonine-protein kinase NLK (Homo sapiens) (UniProt Q9UBE8); conditions: Compound concentration 1000.0 nM
[23] = target: Serine/threonine-protein kinase PAK 1 (Homo sapiens) (UniProt Q13153); conditions: Compound concentration 1000.0 nM
[24] = target: Serine/threonine-protein kinase PAK 3 (Homo sapiens) (UniProt O75914); conditions: Compound concentration 1000.0 nM
[25] = target: Cyclin-dependent kinase 18 (Homo sapiens) (UniProt Q07002); conditions: Compound concentration 1000.0 nM
[26] = target: Cyclin-dependent kinase 2 homolog (Plasmodium falciparum (isolate 3D7)) (UniProt P61075); conditions: Compound concentration 1000.0 nM
[27] = tested on: Phosphatidylinositol 4,5-bisphosphate 3-kinase catalytic subunit alpha isoform (Homo sapiens), P42336 [C420R]; conditions: Compound concentration 1000.0 nM
[28] = target: Phosphatidylinositol 4-phosphate 5-kinase type-1 gamma (Homo sapiens) (UniProt O60331); conditions: Compound concentration 1000.0 nM
[29] = target: Protein kinase C epsilon type (Homo sapiens) (UniProt Q02156); conditions: Compound concentration 1000.0 nM
[30] = target: Interferon-induced, double-stranded RNA-activated protein kinase (Homo sapiens) (UniProt P19525); conditions: Compound concentration 1000.0 nM
[31] = target: Serine/threonine-protein kinase RIO3 (Homo sapiens) (UniProt O14730); conditions: Compound concentration 1000.0 nM
[32] = target: Ribosomal protein S6 kinase alpha-4 (Homo sapiens) (UniProt O75676); conditions: Compound concentration 1000.0 nM
[33] = target: Ribosomal protein S6 kinase alpha-1 (Homo sapiens) (UniProt Q15418); conditions: Compound concentration 1000.0 nM
[34] = target: Ribosomal protein S6 kinase alpha-3 (Homo sapiens) (UniProt P51812); conditions: Compound concentration 1000.0 nM
[35] = target: Ribosomal protein S6 kinase alpha-6 (Homo sapiens) (UniProt Q9UK32); conditions: Compound concentration 1000.0 nM
[36] = target: STE20-like serine/threonine-protein kinase (Homo sapiens) (UniProt Q9H2G2); conditions: Compound concentration 1000.0 nM
[37] = target: Proto-oncogene tyrosine-protein kinase Src (Homo sapiens) (UniProt P12931); conditions: Compound concentration 1000.0 nM
[38] = target: SRSF protein kinase 2 (Homo sapiens) (UniProt P78362); conditions: Compound concentration 1000.0 nM
[39] = target: Serine/threonine-protein kinase 33 (Homo sapiens) (UniProt Q9BYT3); conditions: Compound concentration 1000.0 nM
[40] = target: Serine/threonine-protein kinase 36 (Homo sapiens) (UniProt Q9NRP7); conditions: Compound concentration 1000.0 nM
[41] = target: Dual specificity testis-specific protein kinase 1 (Homo sapiens) (UniProt Q15569); conditions: Compound concentration 1000.0 nM
[42] = target: Wee1-like protein kinase (Homo sapiens) (UniProt P30291); conditions: Compound concentration 1000.0 nM
Histamine H1 receptor = Histamine H1 receptor (Homo sapiens, UniProt P35367); conditions: Compound concentration 10.0 uM
[43] = target: Beta-3 adrenergic receptor (Homo sapiens) (UniProt P13945); conditions: Compound concentration 10.0 uM
[44] = target: Sigma intracellular receptor 2 (Homo sapiens) (UniProt Q5BJF2); conditions: Compound concentration 10.0 uM
Sigma intracellular receptor 2 (Homo sapiens), sequence (Q5BJF2 whole entry): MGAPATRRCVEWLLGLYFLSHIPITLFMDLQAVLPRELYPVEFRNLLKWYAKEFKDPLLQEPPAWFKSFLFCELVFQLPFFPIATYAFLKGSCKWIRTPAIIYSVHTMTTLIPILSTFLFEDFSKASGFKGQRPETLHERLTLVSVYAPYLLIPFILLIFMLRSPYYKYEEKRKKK

BMP-2-inducible protein kinase (Homo sapiens), sequence (Q9NSY1 whole entry, looked up): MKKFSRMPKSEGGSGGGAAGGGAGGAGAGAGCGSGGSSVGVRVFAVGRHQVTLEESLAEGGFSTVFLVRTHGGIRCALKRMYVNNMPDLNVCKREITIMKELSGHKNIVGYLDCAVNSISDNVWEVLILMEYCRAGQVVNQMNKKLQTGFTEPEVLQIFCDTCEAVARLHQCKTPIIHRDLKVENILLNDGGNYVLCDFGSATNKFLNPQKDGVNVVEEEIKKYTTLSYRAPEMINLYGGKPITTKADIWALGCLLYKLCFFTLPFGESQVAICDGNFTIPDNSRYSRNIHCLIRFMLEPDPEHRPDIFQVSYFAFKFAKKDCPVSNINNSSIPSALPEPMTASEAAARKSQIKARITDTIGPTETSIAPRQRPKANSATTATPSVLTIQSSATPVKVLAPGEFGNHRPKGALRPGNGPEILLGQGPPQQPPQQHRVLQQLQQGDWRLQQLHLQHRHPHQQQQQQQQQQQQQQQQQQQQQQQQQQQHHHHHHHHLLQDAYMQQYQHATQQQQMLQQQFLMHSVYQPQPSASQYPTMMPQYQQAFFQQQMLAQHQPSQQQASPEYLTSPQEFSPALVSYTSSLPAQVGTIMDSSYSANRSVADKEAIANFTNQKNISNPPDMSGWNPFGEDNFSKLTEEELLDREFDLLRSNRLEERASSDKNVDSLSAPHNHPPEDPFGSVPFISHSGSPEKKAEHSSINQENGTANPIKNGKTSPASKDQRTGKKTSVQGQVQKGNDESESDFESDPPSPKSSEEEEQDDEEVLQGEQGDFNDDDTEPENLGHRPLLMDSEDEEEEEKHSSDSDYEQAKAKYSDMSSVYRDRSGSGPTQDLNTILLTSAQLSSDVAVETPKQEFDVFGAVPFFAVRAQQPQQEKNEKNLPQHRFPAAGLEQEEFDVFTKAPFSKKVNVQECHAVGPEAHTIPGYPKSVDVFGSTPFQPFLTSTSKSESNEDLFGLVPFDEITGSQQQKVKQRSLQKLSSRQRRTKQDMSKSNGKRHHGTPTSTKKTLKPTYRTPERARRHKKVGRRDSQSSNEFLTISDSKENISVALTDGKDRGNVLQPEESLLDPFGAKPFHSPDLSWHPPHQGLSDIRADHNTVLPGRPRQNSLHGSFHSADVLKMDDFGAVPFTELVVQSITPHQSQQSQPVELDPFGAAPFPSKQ

CCCCN(CCCC)C(=O)CN1C[C@H](c2cc(OC)c3c(c2)OCO3)[C@@H](C(=O)O)[C@@H]1CC(C)(C)CCC [ABT-546]
residual activity [1]: 81.7%
residual activity [2]: 100%
residual activity [3]: 100%
residual activity [4]: 100%
residual activity [5]: 80.2%
residual activity [6]: 91.4%
residual activity [7]: 72.1%
residual activity [8]: 100%
residual activity [9]: 100%
residual activity [10]: 100%
residual activity [11]: 70.6%
residual activity [12]: 100%
residual activity [13]: 100%
residual activity [14]: 100%
residual activity [15]: 82.3%
residual activity [16]: 100%
residual activity [17]: 80.2%
residual activity [18]: 81.5%
residual activity [19]: 98%
residual activity [20]: 98.3%
residual activity [21]: 100%
residual activity [22]: 100%
residual activity [23]: 100%
residual activity [24]: 100%
residual activity [25]: 100%
residual activity [26]: 72.2%
residual activity [27]: 100%
residual activity [28]: 65.9%
residual activity [29]: 100%
residual activity [30]: 100%
residual activity [31]: 74.9%
residual activity [32]: 100%
residual activity [33]: 97.7%
residual activity [34]: 54.9%
residual activity [35]: 100%
residual activity [36]: 100%
residual activity [37]: 100%
residual activity [38]: 100%
residual activity [39]: 100%
residual activity [40]: 100%
residual activity [41]: 100%
residual activity [42]: 95.4%
inhibition (Histamine H1 receptor): 53.6%
inhibition [43]: 2.71%
inhibition [44]: 48.5%

CCCCN(CCCC)C(=O)CN1C[C@@H](c2cc(OC)c3c(c2)OCO3)[C@H](C(=O)O)[C@H]1CC(C)(C)CCC [A-545]
residual activity [1]: 100%
residual activity [2]: 100%
residual activity [3]: 39.2%
residual activity [4]: 96.3%
residual activity [5]: 81.5%
residual activity [6]: 100%
residual activity [7]: 89.9%
residual activity [8]: 95.7%
residual activity [9]: 100%
residual activity [10]: 100%
residual activity [11]: 100%
residual activity [12]: 100%
residual activity [13]: 75.2%
residual activity [14]: 96.1%
residual activity [15]: 97.1%
residual activity [16]: 96.8%
residual activity [17]: 83.5%
residual activity [18]: 100%
residual activity [19]: 79%
residual activity [20]: 93%
residual activity [21]: 100%
residual activity [22]: 100%
residual activity [23]: 95.9%
residual activity [24]: 89.4%
residual activity [25]: 92.4%
residual activity [26]: 95.9%
residual activity [27]: 99.4%
residual activity [28]: 100%
residual activity [29]: 100%
residual activity [30]: 100%
residual activity [31]: 100%
residual activity [32]: 100%
residual activity [33]: 91.3%
residual activity [34]: 85.4%
residual activity [35]: 79.2%
residual activity [36]: 92.5%
residual activity [37]: 75.2%
residual activity [38]: 100%
residual activity [39]: 100%
residual activity [40]: 75%
residual activity [41]: 94.3%
residual activity [42]: 84.8%
inhibition (Histamine H1 receptor): 47.4%
inhibition [43]: 28.4%
inhibition [44]: 41.3%
